Columns and labels:
[1] = 101.33 kPa, Liquid, Vibrating tube method
[2] = xn = mol fraction of the nth substance listed; details: 101.3 kPa, Liquid, Vibrating tube method

CCOC(C)=O [ethyl acetate]
[1]
Details	mass density [kg/m3]
293.15 K	900.26
298.15 K	894.14
303.15 K	887.85
308.15 K	881.52
313.15 K	875.14

CCNC=O [N-ethylformamide] + CCC(C)=O
mass density [kg/m3], [2]
Details	x1 = 0.1242	x1 = 0.2302	x1 = 0.3384	x1 = 0.4407	x1 = 0.5398	x1 = 0.6369	x1 = 0.7317	x1 = 0.8186	x1 = 0.91
293.15 K	826.16	840.95	856.12	870.55	884.78	898.71	912.21	925	938.61
298.15 K	820.91	836.01	851.11	865.71	880.07	894.02	907.71	920.61	934.41
303.15 K	815.8	830.97	846.25	860.93	875.4	889.48	903.31	916.28	930.12
308.15 K	810.54	825.9	841.32	856.14	870.71	884.87	898.84	911.88	925.83
313.15 K	805.22	820.74	836.31	851.26	865.95	880.2	894.3	907.42	921.48

C1CCOC1 [tetrahydrofuran]
[1]
Details	mass density [kg/m3]
293.15 K	888.73
298.15 K	883.24
303.15 K	877.6
308.15 K	872.02
313.15 K	866.23

CCC(C)=O [butanone]
[1]
Details	mass density [kg/m3]
293.15 K	808.64
298.15 K	803.24
303.15 K	797.88
308.15 K	792.45
313.15 K	786.94

CCNC=O [N-ethylformamide]
[1]
Details	mass density [kg/m3]
293.15 K	951.59
298.15 K	947.48
303.15 K	943.29
308.15 K	939.04
313.15 K	934.78

CCNC=O [N-ethylformamide] + CCOC(C)=O
mass density [kg/m3], [2]
Details	x1 = 0.1322	x1 = 0.2514	x1 = 0.3559	x1 = 0.4653	x1 = 0.564	x1 = 0.671	x1 = 0.7544	x1 = 0.8376	x1 = 0.9223
293.15 K	907.89	914.13	919.39	924.91	929.7	935.01	939.27	943.3	947.63
298.15 K	901.99	908.51	914.06	919.68	924.66	930.12	934.56	938.85	943.28
303.15 K	896.06	902.84	908.62	914.51	919.65	925.33	929.93	934.35	938.94
308.15 K	890.09	897.16	903.23	909.29	914.62	920.5	925.29	929.86	934.56
313.15 K	884.03	891.14	897.65	903.98	909.53	915.67	920.55	925.31	930.15

CCNC=O [N-ethylformamide] + C1CCOC1
mass density [kg/m3], [2]
Details	x1 = 0.1142	x1 = 0.2142	x1 = 0.3179	x1 = 0.4258	x1 = 0.5219	x1 = 0.6177	x1 = 0.7146	x1 = 0.8111	x1 = 0.9121
293.15 K	896.3	903.1	910.05	917.17	923.35	929.34	935.26	940.88	946.8
298.15 K	890.99	897.92	905.07	912.38	918.66	924.77	930.78	936.53	942.58
303.15 K	885.68	892.77	900.1	907.54	913.98	920.19	926.31	932.18	938.31
308.15 K	880.28	887.57	895.02	902.62	909.25	915.53	921.81	927.84	934.01
313.15 K	874.84	882.2	889.89	897.66	904.45	910.99	917.2	923.35	929.64
